For test [1], the system named is Staphylococcus aureus MSSA (SH1000). In words: Minimum inhibitory concentration (MIC), broth microdilution. Type of test: cell-based. Particulars: read-out: MIC S. aureus. How it is done: (§1) The term “minimum inhibitory concentration (MIC)” means the lowest concentration of an antimicrobial agent that will inhibit the visible growth of a microorganism after overnight incubation. MIC values against bacteria, for example, the Gram-positive Staphylococcus aureus and Enterococcus faecalis and the Gram-negative Escherichia coli and Pseudomonas aeruginosa were determined by standard methods.
(§2) With nearly three-dozen amphiphiles varying in structure and cationic nature synthesized, minimum inhibitory concentration (MIC) values against the Gram-positive Staphylococcus aureus and Enterococcus faecalis and the Gram-negative Escherichia coli and Pseudomonas aeruginosa were determined by standard methods. […] The commercially available antibacterial agent benzalkonium chloride (benzyldimethyldodecylammonium chloride, Bn,12) was tested for comparison. The broth microdilution for determining MIC values was performed as previously reported.
(§3) Different biological assays were performed. […] All cultures, with the exception of E. faecalis, were grown with shaking at 250 rpm.
(§4) Minimum inhibitory concentration (MIC) values against bacteria were measured using standard method. Compounds were serially diluted two-fold from an aqueous stock solution to yield twelve test concentrations. Overnight S. aureus, E. faecalis, E. coli, P. aeruginosa, CA-MRSA, and HA-MRSA cultures diluted to ca. 10^6 cfu/mL in Mueller-Hinton media and 100 μL were inoculated into each well of a U-bottom 96-well plate (BD Biosciences, BD351177) containing 100 μL of compound solution. Plates were incubated statically at 37° C. for 72 hours upon which time wells were evaluated visually for bacterial growth. The MIC was determined as the lowest concentration of compound resulting in no bacterial growth visible to the naked eye, based on the majority of three independent experiments. Positive and negative aqueous and media controls were conducted for each trial.
For orientation: Broth dilution looks for growth in wells or tubes with falling amounts of substance.

For test [2], the system named is Pseudomonas aeruginosa (PAO1). Described as above. Type of test: cell-based. How it is done:
as §1, §2, §3, §4

For test [3], the system named is Enterococcus faecalis (OG1RF). The description is as above. Type of test: cell-based. The following applies: read-out: MIC E. faecalis. How it is done: as §1, §2, §3, §4
In test [4] the test system is Escherichia coli (MC4100). Described as above. Type of test: cell-based. Particulars: read-out: MIC E. coli. The procedure:
as §1, §2, §3, §4

The subject of test [5] is S. aureus (MSSA, SH1000) biofilms. The test can be described thus: Minimum biofilm eradication concentration (MBEC), regrowth assay. The format is cell-based, Staphylococcus aureus. Particulars: for MBEC S. aureus: Table 2, pre-established biofilm, ± values varied between 50 and 100 μM for the six trials; for eradication of S. aureus biofilms (in words): at the concentrations tested. An excerpt: (§5) A regrowth assay was used to establish the MBEC of a compound to evaluate the antibiofilm activity. See also H. Ceri, M. Olson, D. Morck, D. Storey, R. Read, A. Buret, B. Olson, Methods Enzymol. 2001, 337, 377.
(§6) Encouraged by the potency of the QACs against planktonic bacterial cells, the inventors then evaluated the efficacy of compound (12,2,12) against Staphylococcus aureus and Enterococcus faecalis biofilms. […] To both accurately evaluate the antibiofilm activity, a regrowth assay was utilized to establish the minimum biofilm eradication concentration (MBEC) of each compound.
(§7) Different biological assays were performed. For all biological assays, laboratory strains of methicillin-susceptible Staphylococcus aureus MSSA (SH1000), Enterococcus faecalis (OG1RF), Escherichia coli (MC4100), Pseudomonas aeruginosa (PAO1), community-acquired methicillin-resistant Staphylococcus aureus CA-MRSA (USA300-0114), and hospital-acquired methicillin-resistant Staphylococcus aureus HA-MRSA (ATCC 33591) were grown at 37° C. overnight from freezer stocks in 10 mL of the media indicated for each assay. All cultures, with the exception of E. faecalis, were grown with shaking at 250 rpm.
(§8) Minimum biofilm eradication concentration (MBEC) was also measured. To each well of a flat-bottomed 96-well plate (Corning 3370), 8 μL of overnight bacterial culture was brought to a volume of 200 μL with fresh media (BHI for S. aureus and MRSA, Todd Hewitt (TH) for E. faecalis). Plates were incubated statically for 24 hours at 37° C. to establish biofilms. After 24 hours, the wells were carefully emptied by inverting the plate and gently shaking. A pre-mixed solution of media and aqueous compound stock solution was added to each well and plates were incubated at 37° C. 16 hours after pre-established biofilms were treated with compound, the media from each well was removed, biofilms were washed three times with 200 μL PBS to remove planktonic cells, and biofilms were incubated overnight at 37° C. in 200 μL of fresh media to allow any viable cells to continue growing. The wells were then vigorously pipetted to resuspend the biofilm cells and the OD at 595 nm was measured using a plate reader (POLARstar Omega, BMG Labtech). Biofilms reaching a final OD of less than 0.1 were considered eradicated and the lowest concentration of antibiotic corresponded to the MBEC. Four replicates were completed for each concentration of compound as well as positive and negative controls.

Another test deals with E. faecalis biofilms. Described as above. The format is cell-based, Enterococcus faecalis. The following applies: for MBEC E. faecalis: Table 2, pre-established biofilm, ± values varied between 50 and 100 μM for the six trials; for eradication of E. faecalis biofilms (in words): at the concentrations tested.
Text: as §5, §6, §7, §8

The mark [6] stands for this setting: Table 1, read-out: MIC P. aeruginosa.
Setting [7] is: Table 3, read-out: MIC P. aeruginosa.

Like-named read-outs stand apart in the source and are kept apart here.

As usually defined, the MIC is the lowest concentration that inhibits growth of the organism. With `C[N+](C)(C)CC[N+](C)(C)C` [1,2,1], the MIC in test [1] (Table 1), in test [2] (setting [6]), in test [3] (Table 1) and in test [4] (Table 1) was more than 500 µM each time. The “MBEC S. aureus” value in test [5] is more than 200 µM. The “eradication of S. aureus biofilms (in words)” value in test [5] is reported as “unable to eradicate biofilms”. For the same molecule, the “MBEC E. faecalis” value in the test with E. faecalis biofilms is more than 200 µM. For the same molecule, the “eradication of E. faecalis biofilms (in words)” value in the test on E. faecalis biofilms is listed as “unable to eradicate biofilms”.
Consider `C[N+](C)(C)CCCCC[N+](C)(C)C` [1,5,1], for which the MIC in test [1] (Table 1), in test [2] (setting [6]), in test [3] (Table 1) and in test [4] (Table 1) was more than 500 µM in each case. Also, in test [5], the “MBEC S. aureus” value was more than 200 µM. In test [5], the “eradication of S. aureus biofilms (in words)” value was “unable to eradicate biofilms”. The “MBEC E. faecalis” value with E. faecalis biofilms is more than 200 µM. Moreover, the “eradication of E. faecalis biofilms (in words)” value in the test on E. faecalis biofilms is “unable to eradicate biofilms”.
In the case of `CCCCCCCCCC[N+](C)(C)CCN(C)CC[N+](C)(C)CCCCCCCCCC.[Br-].[Br-]` [10, 2, 0, 2, 10], the MIC is listed as 2 µM in test [1] (Table 3), 63 µM in test [2] (setting [7]), 8 µM in test [3] (Table 3) and 8 µM in test [4] (Table 3).
Take `CCCCCCCCCC[N+](C)(C)CC[N+](C)(C)CC[N+](C)(C)CCCCCCCCCC.[Br-].[Br-].[I-]` [10, 2, 1, 2, 10]: the MIC is recorded as 2 µM in test [1] (Table 3), 63 µM in test [2] (setting [7]), 8 µM in test [3] (Table 3) and 8 µM in test [4] (Table 3).
Regarding `C=CC[N+](C)(CC[N+](C)(C)CCCCCCCCCC)CC[N+](C)(C)CCCCCCCCCC.[Br-].[Br-].[Br-]` [10, 2, 3A, 2, 10], the MIC in test [1] (Table 3) is reported as 2 µM; in test [2] (setting [7]) it was 63 µM; in test [3] (Table 3), 4 µM; in test [4] (Table 3), 2 µM.
`CCCCCCCCCC[N+](C)(C)CCCCC[N+](C)(C)CCCCCCCCCC.[Br-].[Br-]` [10, 5, 10]: the minimal inhibitory concentration (MIC) in test [1] (Table 3) stood at 2 µM; in test [2] (setting [7]) it was 63 µM; in test [3] (Table 3), 4 µM; in test [4] (Table 3), 8 µM.
The matching figures for `CCCCCCCCCCC[N+](C)(C)CCN(C)CC[N+](C)(C)CCCCCCCCCCC.[Br-].[Br-]` [11, 2, 0, 2, 11]: 2 µM, 8 µM, 2 µM and 2 µM.
The matching figures for `CCCCCCCCCCC[N+](C)(C)CC[N+](C)(C)CC[N+](C)(C)CCCCCCCCCCC.[Br-].[Br-].[I-]` [11, 2, 1, 2, 11]: 2 µM, 8 µM, 2 µM and 4 µM.
The matching figures for `C=CC[N+](C)(CC[N+](C)(C)CCCCCCCCCCC)CC[N+](C)(C)CCCCCCCCCCC.[Br-].[Br-].[Br-]` [11, 2, 3A, 2, 11]: 1 µM, 16 µM, 2 µM and 2 µM.
For the molecule `CCCCCCCCCCCC[N+](C)(C)CCCCCCCCCCCC.[Br-]` [12,12], the MIC in test [1] (Table 1) is on record as 1 µM; in test [2] (setting [6]) it was 32 µM; in test [3] (Table 1), 1 µM; in test [4] (Table 1) it was 8 µM. Further, in test [5], the “MBEC S. aureus” value is more than 200 µM. For the same molecule, the “MBEC E. faecalis” value in the test on E. faecalis biofilms is 200 µM.
For `CCCCCCCCCCCC[N+](C)(C)CCCCCCC[N+](C)(C)CCCCCCCCCCCC.[Br-].[Br-]` [12, 7, 12], the minimum inhibitory concentration (MIC) worked out at 1 µM in test [1] (Table 3), 8 µM in test [2] (setting [7]), 1 µM in test [3] (Table 3) and 2 µM in test [4] (Table 3).
Regarding `CCCCCCCCCCCCCC[N+](C)(C)CCN(C)CC[N+](C)(C)CCCCCCCCCCCCCC.[Br-].[Br-]` [14, 2, 0, 2, 14], the MIC is listed as 2 µM in test [1] (Table 3), 16 µM in test [2] (setting [7]), 1 µM in test [3] (Table 3) and 4 µM in test [4] (Table 3).
The matching figures for `CCCCCCCCCCCCCC[N+](C)(C)CC[N+](C)(C)CC[N+](C)(C)CCCCCCCCCCCCCC.[Br-].[Br-].[I-]` [14, 2, 1, 2, 14]: 1 µM, 8 µM, 1 µM and 2 µM.
The matching figures for `C=CC[N+](C)(CC[N+](C)(C)CCCCCCCCCCCCCC)CC[N+](C)(C)CCCCCCCCCCCCCC.[Br-].[Br-].[Br-]` [14, 2, 3A, 2, 14]: 2 µM, 8 µM, 2 µM and 2 µM.
With `CCCCCCCCCCCCCC[N+](C)(C)CCCCC[N+](C)(C)CCCCCCCCCCCCCC.[Br-].[Br-]` [14, 5, 14], the minimum inhibitory concentration (MIC) stood at 1 µM in test [1] (Table 3), 16 µM in test [2] (setting [7]), 1 µM in test [3] (Table 3) and 4 µM in test [4] (Table 3).
Take `CCCCCCCCCCCCCCCC[N+](C)(C)CCN(C)CC[N+](C)(C)CCCCCCCCCCCCCCCC.[Br-].[Br-]` [16, 2, 0, 2, 16]: the MIC in test [1] (Table 3) was 4 µM; in test [2] (setting [7]) it was 32 µM; in test [3] (Table 3) it was 2 µM; in test [4] (Table 3), 16 µM.
For `C=CC[N+](C)(CC[N+](C)(C)CCCCCCCCCCCCCCCC)CC[N+](C)(C)CCCCCCCCCCCCCCCC.[Br-].[Br-].[Br-]` [16, 2, 3A, 2, 16], the MIC in test [1] (Table 3) was found to be 4 µM; in test [2] (setting [7]), 16 µM; in test [3] (Table 3) it was 4 µM; in test [4] (Table 3), 8 µM.
`CCCCCCCCCCCC[N+](C)(C)CCN(C)CCN(C)CCN(C)C.[Br-]` [N4-12,0,0, 0]: the MIC is reported as 8 µM in test [1] (Table 3), 32 µM in test [2] (setting [7]), 8 µM in test [3] (Table 3) and 8 µM in test [4] (Table 3).
As to `CCCCCCCCCCCCCC[N+](C)(C)CCN(C)CCN(C)CCN(C)C.[Br-]` [N4-14,0,0, 0], the MIC is listed as 16 µM in test [1] (Table 3), 125 µM in test [2] (setting [7]), 16 µM in test [3] (Table 3) and 32 µM in test [4] (Table 3).
Regarding `CCCCCCCCCCCCCC[N+](C)(C)CCN(C)CCN(C)CC[N+](C)(C)CCCCCCCCCCCC.[Br-].[Br-]` [N4-14,0,0, 12], the MIC in test [1] (Table 3) is given as 1 µM; in test [2] (setting [7]), 8 µM; in test [3] (Table 3), 1 µM; in test [4] (Table 3), 2 µM.
Regarding `CCCCCCCCCCCCCC[N+](C)(C)CCN(C)CCN(C)CC[N+](C)(C)CCCCCCCCCCCCCC.[Br-].[Br-]` [N4-14,0,0, 14], the MIC in test [1] (Table 3) was found to be 2 µM; in test [2] (setting [7]), 16 µM; in test [3] (Table 3), 1 µM; in test [4] (Table 3), 2 µM.
In the case of `NCCCNCCCN` [Norspermidine, reference compound], the minimal inhibitory concentration (MIC) was more than 500 µM in test [1] (Staphylococcus aureus, MSSA); more than 500 µM in test [2] (Pseudomonas aeruginosa, PAO1, read-out: MIC P. aeruginosa); more than 500 µM in test [3] (Enterococcus faecalis); more than 500 µM in test [4] (Escherichia coli). In addition, the “MBEC S. aureus” value in test [5] is more than 200 µM. Moreover, the “MBEC E. faecalis” value in the test on E. faecalis biofilms is more than 200 µM.

The values above are taken from patent US10398142B2, “Polycationic amphiphiles as antimicrobial agents” (priority 2013, dated 2019).
